Data taken from article PMC9867241, “Antioxidant and Cytotoxic Activity of New Polyphenolic Derivatives of Quinazolin-4(3H)-one: Synthesis and In Vitro Activities Evaluation” (Pharmaceutics, 2022).
Values after ≈ are worked out from the molar mass of the structure shown.

Legend:
[1] = Ferric reducing antioxidant potential (FRAP) assay; parameters: concentration or dose not given beside the values; settings: for FRAP, % of Activity of Trolox: relative to Trolox; for FRAP, % of Activity of Ascorbic Acid: relative to ascorbic acid
Protocol: In the ferric reducing antioxidant potential (FRAP) assay, in comparison with a blank sample prepared from DMSO mixed with FRAP reagent, the absorbance of the solutions was measured at λ = 593 nm. The compounds were tested according to a modified method proposed initially by Benzie and Strain [31]. Using Equation (4), we calculated the reducing antioxidant potential of 5a–d and 6a–d as a percentage of the activity of the reference compounds:(4) % of control activity=sample absorbance/reference absorbance×100
Ferrous ions resulting from the reduction of ferric ions in the presence of an antioxidant compound form a blue-colored complex (Fe^2+-TPTZ) at pH = 3.6 with tripyridyltriazine (2,4,6-tris(2-pyridyl)-s-triazine). The intensity of the blue complex formed is proportional to the number of ferrous ions. Compounds 5a, 5c and 5d expressed a good electron donation capacity.

[2] = Reducing power (RP) assay; parameters: concentration or dose not given beside the values; settings: for RP, % of Activity of Trolox: relative to Trolox; for RP, % of Activity of Ascorbic Acid: relative to ascorbic acid
Protocol: Herein, the iron (III) is not free in the solution as it was in the FRAP assay and is complexed by cyanide ions. The evaluation of the reducing power (RP) was performed at a pH closer to neutral (pH = 6.6); this is different from the FRAP test, which is performed in an acidic environment. Against a blank sample, the absorbances were measured at λ = 700 nm. The followed protocol was based on the adaptation of previously reported protocols and was previously reported by our group. Using Equation (4), we calculated the reducing power of the 5a–d and 6a–d compounds as a percentage of the reference compounds activity.
The evaluated compounds can reduce ferricyanide to ferrocyanide, in the presence of ferric ions, resulting in the Perl’s Prussian which gives blue. The higher the percentage of reducing power, the higher was the absorbance that was measured due to a higher amount of colored complex resulting from the reaction.

[3] = Cu^2+ chelation assay (murexide competition)
From the text: With murexide as a chromophoric chelator, we performed the protocol followed for the evaluation of Cu^2+ chelating activities of the compounds using an adaptation of the method presented by Cesari et al. and Wu et al.. Using Equation (6), we calculated the copper chelation capacities of the 5a–d and 6a–d compounds:(6) copper chelation (%)=(A485/A520)control−(A485/A520)sample/(A485/A520)control×100
The evaluation of the Cu^2+ chelation activity of compounds was made based on the competition for Cu^2+ with murexide. The chelating activity of compounds for the cupric ions found in the current assay is significant for the pyrogallol derivatives, being quite close to EDTA-Na2.

[4] = ABTS˙+ radical scavenging assay
Protocol: The stock solutions (1 mg/mL) of the tested compounds and the controls were obtained, by dissolving the substances in dimethyl sulfoxide (DMSO). Using Jasco V-530, an UV-VIS spectrophotometer (Jasco International Co., Ltd., Tokyo, Japan), we performed the colorimetric determinations in low-volume single-use 10 mm width cuvettes.
The assays were performed in triplicate and the results are presented as averages for each assay.

[5] = NO˙ radical scavenging assay (Griess reaction); settings: PBS pH 7.4, sodium nitroprusside
Protocol: The scavenging of the NO˙ radical was performed by applying previously reported protocols. The in vitro protocol describes the decomposition of sodium nitroprusside in phosphate buffered saline (PBS) at pH = 7.4. The NO˙ radicals would be involved in a Griess reaction if they were not captured by the tested compounds. This reaction results from the formation of an azo dye, with maximum absorption at 546 nm. This azo dye is formed from sulfanilic acid and naphthyl ethylenediamine dichloride.

| SMILES | IC50 [4] [µM] | IC50 (ABTS˙^+ scavenging) [4] [µg/mL] | FRAP, % of Activity of Trolox [1] [%] | FRAP, % of Activity of Ascorbic Acid [1] [%] | RP, % of Activity of Trolox [2] [%] | RP, % of Activity of Ascorbic Acid [2] [%] | Cupric ions Chelation Capacity (%) ([3]; 3.36 µg/mL) | Cupric ions Chelation Capacity (%) ([3]; 8.40 µg/mL) | Cupric ions Chelation Capacity (%) ([3]; 16.80 µg/mL) | % of ABTS˙^+ Scavenging ([4]; 0.83 µg/mL) [%] | % of ABTS˙^+ Scavenging ([4]; 1.67 µg/mL) [%] | % of ABTS˙^+ Scavenging ([4]; 3.33 µg/mL) [%] | % of ABTS˙^+ Scavenging ([4]; 4.99 µg/mL) | % of ABTS˙^+ Scavenging ([4]; 6.66 µg/mL) | % of ABTS˙^+ Scavenging ([4]; 9.99 µg/mL) | % of ABTS˙^+ Scavenging ([4]; 13.32 µg/mL) | % of NO˙ Scavenged [5] [%] |
| --- | --- | --- | --- | --- | --- | --- | --- | --- | --- | --- | --- | --- | --- | --- | --- | --- | --- |
| C=CCn1c(SCC(=O)NN=Cc2ccc(O)c(O)c2O)nc2ccccc2c1=O [Compound 5a, 2-((3-Allyl-4-oxo-3,4-dihydroquinazolin-2-yl)thio)-N’-(2,3,4-trihydroxybenzylidene)acetohydrazide] | 3.87 | 1.65 (≈ 3.87 µM) | 98.88 | 86.18 | 92.09 | 63.20 | 20.33 | 30.76 | 40.29 | 38.14 | 51.47 | 72.00 | + (+ represents more than 95%) | + (+ represents more than 95%) | + (+ represents more than 95%) | + (+ represents more than 95%) | 38.39 |
| O=C(CSc1nc2ccccc2c(=O)n1Cc1ccccc1)NN=Cc1ccc(O)c(O)c1O [Compound 5b, 2-((3-Benzyl-4-oxo-3,4-dihydroquinazolin-2-yl)thio)-N’-(2,3,4-trihydroxybenzylidene)acetohydrazide] | 4.01 | 1.91 (≈ 4.01 µM) | 76.93 | 67.05 | 85.68 | 58.80 | 11.17 | 25.27 | 40.20 | 34.65 | 49.32 | 68.62 | 85.98% | + (+ represents more than 95%) | + (+ represents more than 95%) | + (+ represents more than 95%) | 36.75 |
| CCCCn1c(SCC(=O)NN=Cc2ccc(O)c(O)c2O)nc2ccccc2c1=O [Compound 5d, 2-((3-Butyl-4-oxo-3,4-dihydroquinazolin-2-yl)thio)-N’-(2,3,4-trihydroxybenzylidene)acetohydrazide] | 3.5 | 1.55 (≈ 3.5 µM) | 92.71 | 80.80 | 72.18 | 49.54 | 14.19 | 28.04 | 41.42 | 41.98 | 52.25 | 67.46 | 81.06% | + (+ represents more than 95%) | + (+ represents more than 95%) | + (+ represents more than 95%) | 35.14 |

More lines, main results first:

| IC50 [4] [µM] | IC50 (ABTS˙^+ scavenging) [4] [µg/mL] | SMILES | FRAP, % of Activity of Trolox [1] [%] | FRAP, % of Activity of Ascorbic Acid [1] [%] | RP, % of Activity of Trolox [2] [%] | RP, % of Activity of Ascorbic Acid [2] [%] | Cupric ions Chelation Capacity (%) ([3]; 3.36 µg/mL) | Cupric ions Chelation Capacity (%) ([3]; 8.40 µg/mL) | Cupric ions Chelation Capacity (%) ([3]; 16.80 µg/mL) | % of ABTS˙^+ Scavenging ([4]; 0.83 µg/mL) [%] | % of ABTS˙^+ Scavenging ([4]; 1.67 µg/mL) [%] | % of ABTS˙^+ Scavenging ([4]; 3.33 µg/mL) [%] | % of ABTS˙^+ Scavenging ([4]; 4.99 µg/mL) | % of ABTS˙^+ Scavenging ([4]; 6.66 µg/mL) | % of ABTS˙^+ Scavenging ([4]; 9.99 µg/mL) | % of ABTS˙^+ Scavenging ([4]; 13.32 µg/mL) | % of NO˙ Scavenged [5] [%] |
| --- | --- | --- | --- | --- | --- | --- | --- | --- | --- | --- | --- | --- | --- | --- | --- | --- | --- |
| 16.9 | 7.17 (≈ 16.9 µM) | C=CCn1c(SCC(=O)NN=C(C)c2ccc(O)cc2O)nc2ccccc2c1=O [Compound 6a, 2-((3-Allyl-4-oxo-3,4-dihydroquinazolin-2-yl)thio)-N’-(1-(2,4-dihydroxyphenyl)ethylidene)acetohydrazide] | 26.17 | 22.81 | 30.73 | 21.09 | 10.96 | 20.64 | 31.79 | 27.03 | 30.08 | 37.19 | 42.27% | 50.03% | 60.55% | 70.24% | 31.82 |
| 8.7 | 4.13 (≈ 8.7 µM) | CC(=NNC(=O)CSc1nc2ccccc2c(=O)n1Cc1ccccc1)c1ccc(O)cc1O [Compound 6b, 2-((3-Benzyl-4-oxo-3,4-dihydroquinazolin-2-yl)thio)-N’-(1-(2,4-dihydroxyphenyl)ethylidene)acetohydrazide] | 21.24 | 18.51 | 29.01 | 19.91 | 6.77 | 17.17 | 30.49 | 26.26 | 33.32 | 44.60 | 55.88% | 68.23% | 90.98% | + (+ represents more than 95%) | 33.31 |
| 9.84 | 4.06 (≈ 9.84 µM) | CCn1c(SCC(=O)NN=C(C)c2ccc(O)cc2O)nc2ccccc2c1=O [Compound 6c, N’-(1-(2,4-dihydroxyphenyl)ethylidene)-2-((3-ethyl-4-oxo-3,4-dihydroquinazolin-2-yl)thio)acetohydrazide] | 29.65 | 25.85 | 28.98 | 19.89 | 7.47 | 16.75 | 26.72 | 29.08 | 34.73 | 43.19 | 54.47% | 68.58% | 91.60% | + (+ represents more than 95%) | 30.62 |
